Reference: the supplement of paper PMC10307832

Columns and labels:
Assay in all cases: relative viability (nuclei count vs DMSO), 5 days (fraction); higher = more cells survive
[1] = compound: CN1CCC(CC1)OC2=CC(=C(C=C2)NC3=NC=C4C(=N3)N(C(=O)N4C)C5CCCC5)OC [AZ3146] + CCNC(=O)c1noc(-c2cc(C(C)C)c(O)cc2O)c1-c1ccc(CN2CCOCC2)cc1 [Luminespib] (partner 0.01 µM)
Summary of the method: (§1)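 One day after seeding in 1536-well plates, lung cancer cell lines were dosed by pin tool. Dosing was either single-drug or a fixed anchor-drug dose plus five library-drug doses (not always all listed) in √10 steps. After 5 days, nuclei were stained in one fix-and-stain step and counted on 4× images, and relative viability is the nuclei count of treated wells over that of vehicle wells, given as the median of duplicate plates.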

[2] = compound: CN1CCC(CC1)OC2=CC(=C(C=C2)NC3=NC=C4C(=N3)N(C(=O)N4C)C5CCCC5)OC [AZ3146] + Cc1nc(Nc2ncc(C(=O)Nc3c(C)cccc3Cl)s2)cc(N2CCN(CCO)CC2)n1 [Dasatinib] (partner 0.075 µM)
Summary of the method: as §1

[3] = compound: CCOC(=O)CCNc1cc(N2CCc3ccccc3CC2)nc(-c2ccccn2)n1 [GSK-J4] + CS(=O)(=O)CCNCc1ccc(-c2ccc3ncnc(Nc4ccc(OCc5cccc(F)c5)c(Cl)c4)c3c2)o1 [Lapatinib] (partner 2 µM)
Summary of the method: as §1

[4] = compound: CCOC(=O)CCNc1cc(N2CCc3ccccc3CC2)nc(-c2ccccn2)n1 [GSK-J4] + CC1(C)CCC(c2ccc(Cl)cc2)=C(CN2CCN(c3ccc(C(=O)NS(=O)(=O)c4ccc(N[C@H](CCN5CCOCC5)CSc5ccccc5)c(S(=O)(=O)C(F)(F)F)c4)cc3)CC2)C1 [Navitoclax] (partner 0.5 µM)
Summary of the method: as §1

Row | Cell Line | relative viability ([1]; first compound 0.08 µM) | relative viability ([1]; first compound 0.253 µM) | relative viability ([1]; first compound 0.8 µM) | relative viability ([1]; first compound 2.53 µM) | relative viability ([1]; first compound 8 µM) | relative viability ([2]; first compound 0.08 µM) | relative viability ([2]; first compound 0.253 µM) | relative viability ([2]; first compound 0.8 µM) | relative viability ([2]; first compound 2.53 µM) | relative viability ([2]; first compound 8 µM) | relative viability ([3]; first compound 0.5 µM) | relative viability ([3]; first compound 1.581 µM) | relative viability ([3]; first compound 5 µM) | relative viability ([3]; first compound 15.81 µM) | relative viability ([3]; first compound 50 µM) | relative viability ([4]; first compound 0.5 µM) | relative viability ([4]; first compound 1.581 µM) | relative viability ([4]; first compound 5 µM) | relative viability ([4]; first compound 15.81 µM) | relative viability ([4]; first compound 50 µM)
1 | SK-LU-1 | 0.216 | 0.206 | 0.231 | 0.252 | 0.231 | 0.197 | 0.177 | 0.162 | 0.182 | 0.137 | 0.758 | 0.776 | 0.668 | 0.616 | 0.585 | 0.733 | 0.832 | 0.682 | 0.596 | 0.537
2 | NCI-H2228 | 0.133 | 0.149 | 0.162 | 0.145 | 0.146 | 0.466 | 0.562 | 0.579 | 0.511 | 0.483 | 1.11 | 0.598 | 1.17 | 0.943 | 0.938 | 1.1 | 0.868 | 1.07 | 0.8 | 0.871
3 | LCLC-97TM1 | 0.825 | 0.673 | 0.647 | 0.814 | 0.878 | 0.669 | 0.755 | 0.762 | 0.785 | 0.812 |  |  | 1.33 | 0.722 | 0.885 |  |  | 0.43 | 0.178 | 0.307
4 | NCI-H1993 | 0.86 | 0.92 | 0.911 | 1.06 | 1.02 | 0.537 | 0.563 | 0.677 | 0.643 | 0.475 | 0.837 | 0.878 | 0.927 | 0.808 | 0.671 | 1.14 | 0.951 | 1.13 | 0.866 | 0.681
5 | NCI-H1793 | 0.208 | 0.173 | 0.202 | 0.145 | 0.178 | 0.303 | 0.412 | 0.404 | 0.348 | 0.423 | 0.71 | 0.557 | 0.621 | 0.404 | 0.234 | 0.389 | 0.473 | 0.379 | 0.307 | 0.273
6 | NCI-H2087 | 0.232 | 0.182 | 0.217 | 0.209 | 0.199 | 0.802 | 1.09 | 0.902 | 0.801 | 0.702 | 0.794 | 0.514 |  | 1.01 | 0.57 | 0.795 | 1.08 |  | 0.99 | 0.758
7 | COR-L23 | 0.618 | 0.693 | 0.624 | 0.69 | 0.611 | 0.425 | 0.527 | 0.509 | 0.457 | 0.313 | 0.881 | 0.917 |  | 0.927 | 0.615 | 0.886 | 1.02 |  | 0.929 | 0.956
8 | NCI-H1355 | 0.744 | 0.721 | 0.724 | 0.767 | 0.766 | 0.654 | 0.644 | 0.767 | 0.68 | 0.726 | 0.946 | 0.875 | 0.944 | 0.916 | 0.919 | 0.913 | 0.793 | 1.18 | 0.815 | 0.924
9 | RERF-LC-KJ | 1.15 | 1.2 | 1.22 | 1.29 | 0.668 | 0.877 | 0.874 | 0.779 | 0.837 | 0.504 | 0.843 | 0.802 | 0.749 | 0.788 | 0.734 | 0.756 | 1.01 | 0.881 | 0.795 | 0.763
10 | NCI-H727 | 0.465 | 0.796 | 0.458 | 0.34 | 0.302 | 0.418 | 0.378 | 0.324 | 0.362 | 0.384 | 0.827 |  | 0.996 | 0.795 | 0.5 | 0.394 |  | 0.648 | 0.404 | 0.208
11 | NCI-H1734 | 0.181 | 0.198 | 0.689 | 0.198 | 0.2 | 0.436 | 0.461 | 0.493 | 0.484 | 0.394 | 0.977 | 0.802 | 0.74 | 0.893 | 0.725 | 0.83 | 0.736 | 0.694 | 0.734 | 0.632
12 | NCI-H2126 | 0.882 | 0.942 | 0.919 | 0.919 | 0.767 | 0.575 | 0.629 | 0.56 | 0.628 | 0.523 | 0.817 | 0.657 | 0.854 | 0.69 | 0.59 | 0.823 | 0.842 | 0.849 | 0.72 | 0.709
13 | NCI-H1792 | 0.345 | 0.478 | 0.571 | 0.435 | 0.431 | 0.737 | 0.855 |  | 0.808 | 0.822 | 0.932 | 0.705 | 0.835 | 0.782 | 0.692 | 0.621 | 0.571 | 0.574 | 0.567 | 0.514
14 | NCI-H23 | 0.218 | 0.21 | 0.241 | 0.223 | 0.226 | 0.894 | 0.767 | 0.612 | 0.756 | 0.97 | 0.994 |  | 0.772 | 0.778 | 0.674 | 0.856 |  | 0.886 | 0.893 | 0.867
15 | EPLC-272H |  | 0.342 | 0.519 | 0.323 | 0.321 |  | 0.396 | 0.347 | 0.413 | 0.287 | 0.981 |  | 0.919 | 0.89 | 0.679 | 1.14 |  | 1.21 | 0.979 | 1.02
